The source of these data is patent US10533010B2, “Substituted indole Mcl-1 inhibitors” (Vanderbilt University, priority 2014, dated 2020).

Some results are limits rather than exact numbers.

Sequence of recombinant Mcl-1 (residues 172-327) (Q07820 172-327): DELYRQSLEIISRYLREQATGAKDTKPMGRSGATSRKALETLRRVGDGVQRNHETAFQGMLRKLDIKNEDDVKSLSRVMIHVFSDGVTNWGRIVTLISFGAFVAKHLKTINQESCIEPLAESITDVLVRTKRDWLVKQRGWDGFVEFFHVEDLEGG

The first test concerns the target recombinant Mcl-1 (residues 172-327) (Homo sapiens (Human), UniProt Q07820). Put plainly: Fluorescence polarization anisotropy competition assay (FITC-Bak or FITC-Bim BH3 peptide) with Mcl-1. The format is binding. The settings on record: Table 2; Ki bins given in nM; FITC-Bak or FITC-Bim peptide competition; Ki converted from IC50; read-out: Ki for Inhibition of Mcl-1. In general terms: In fluorescence polarisation assays a small probe gives low polarisation when free and higher when bound to something large.
Broadly, the Ki is a measure of affinity in units of concentration, obtained from inhibition or displacement. Regarding `Cc1cc(OCCCc2c3n(c4c(-c5c(C)nn(C)c5C)c(Cl)ccc24)CCCN(c2cc(C(=O)O)c4ccn(CCN(C)C)c4c2)C3=O)cc(C)c1Cl` [I-243, 6-(8-chloro-11-(3-(4-chloro-3,5-dimethylphenoxy)propyl)-1-oxo-7-(1,3,5-trimethyl-1H-pyrazol-4-yl)-4,5-dihydro-1H-[1,4]diazepino[1,2-a]indol-2(3H)-yl)-1-(2-(dimethylamino)ethyl)-1H-indole-4-carboxylic acid], the Ki was under 50 nM.

Regarding `Cc1cc(OCCCc2c3n(c4c(-c5c(C)nn(C)c5C)c(Cl)ccc24)CCCN(Cc2ccc(C(=O)NS(=O)(=O)c4ccc(OCc5ccccc5)cc4)cc2)C3=O)cc(C)c1Cl` [I-309, N-((4-(benzyloxy)phenyl)sulfonyl)-4-((8-chloro-11-(3-(4-chloro-3,5-dimethylphenoxy)propyl)-1-oxo-7-(1,3,5-trimethyl-1H-pyrazol-4-yl)-4,5-dihydro-1H-[1,4]diazepino[1,2-a]indol-2(3H)-yl)methyl)benzamide], the Ki was under 50 nM.

Regarding `Cc1cc(OCCCc2c(C(=O)Nc3ccc(C(=O)O)c(N4CCOCC4)c3)[nH]c3c(-c4c(C)nn(C)c4C)c(Cl)ccc23)cc(C)c1Cl` [I-91, 4-(6-chloro-3-(3-(4-chloro-3,5-dimethylphenoxy)propyl)-7-(1,3,5-trimethyl-1H-pyrazol-4-yl)-1H-indole-2-carboxamido)-2-morpholinobenzoic acid], the Ki was under 50 nM.

With `Cc1cc(OCCCc2c(C(=O)Nc3cncc(C(=O)O)c3)[nH]c3c(-c4c(C)nn(C)c4C)cccc23)cc(C)c1Cl` [I-186, 5-(3-(3-(4-chloro-3,5-dimethylphenoxy)propyl)-7-(1,3,5-trimethyl-1H-pyrazol-4-yl)-1H-indole-2-carboxamido)nicotinic acid], the Ki is under 50 nM.

In the case of `Cc1cc(OCCCc2c(C(=O)NCc3cc(C(=O)O)cc(NCCC(C)C)n3)[nH]c3c(-c4c(C)nn(C)c4C)c(Cl)ccc23)cc(C)c1Cl` [I-283, 2-((6-chloro-3-(3-(4-chloro-3,5-dimethylphenoxy)propyl)-7-(1,3,5-trimethyl-1H-pyrazol-4-yl)-1H-indole-2-carboxamido)methyl)-6-(isopentylamino)isonicotinic acid], the Ki is under 50 nM.

Turning to `Cc1cc(OCCCc2c3n(c4c(-c5c(C)nn(CC(=O)O)c5C)c(Cl)ccc24)CCCNC3=O)cc(C)c1Cl` [I-295, 2-(4-(8-chloro-11-(3-(4-chloro-3,5-dimethylphenoxy)propyl)-1-oxo-2,3,4,5-tetrahydro-1H-[1,4]diazepino[1,2-a]indol-7-yl)-3,5-dimethyl-1H-pyrazol-1-yl)acetic acid], the Ki was under 50 nM.

In the case of `Cc1cc(OCCCc2c(C(=O)NCC(=O)N[C@@H](Cc3ccccc3)C(=O)O)[nH]c3c(-c4c(C)nn(C)c4C)cccc23)cc(C)c1Cl` [I-291, (3-(3-(4-chloro-3,5-dimethylphenoxy)propyl)-7-(1,3,5-trimethyl-1H-pyrazol-4-yl)-1H-indole-2-carbonyl)glycyl-L-phenylalanine], the Ki is under 50 nM.

In the case of `Cc1cc(OCCCc2c3n(c4c(-c5c(C)nn(C)c5C)c(Cl)ccc24)C[C@@H](C)N(c2cc(C(=O)O)c4ccn(C)c4c2)C3=O)cc(C)c1Cl` [I-160, (R)-6-(7-chloro-10-(3-(4-chloro-3,5-dimethylphenoxy)propyl)-3-methyl-1-oxo-6-(1,3,5-trimethyl-1H-pyrazol-4-yl)-3,4-dihydropyrazino[1,2-a]indol-2(1H)-yl)-1-methyl-1H-indole-4-carboxylic acid], the Ki is under 50 nM.

With `Cc1cc(OCCCc2c3n(c4c(-c5c(C)nn(C)c5C)c(Cl)ccc24)CCCN(c2cc(Br)cc(C(=O)O)c2)C3=O)cc(C)c1Cl` [I-218, 3-bromo-5-(8-chloro-11-(3-(4-chloro-3,5-dimethylphenoxy)propyl)-1-oxo-7-(1,3,5-trimethyl-1H-pyrazol-4-yl)-4,5-dihydro-1H-[1,4]diazepino[1,2-a]indol-2(3H)-yl)benzoic acid], the Ki is under 50 nM.

Consider `Cc1cc(OCCCc2c(C(=O)Nc3cccc(C(=O)O)c3)[nH]c3c(-c4c(C)nn(C)c4C)cccc23)cc(C)c1Cl` [I-196, 3-(3-(3-(4-chloro-3,5-dimethylphenoxy)propyl)-7-(1,3,5-trimethyl-1H-pyrazol-4-yl)-1H-indole-2-carboxamido)benzoic acid], for which the Ki was under 50 nM.

For `Cc1cc(OCCCc2c(C(=O)NCC(=O)NS(=O)(=O)c3cccnc3)[nH]c3ccccc23)cc(C)c1Cl` [I-6, 3-(3-(4-chloro-3,5-dimethylphenoxy)propyl)-N-(2-oxo-2-(pyridine-3-sulfonamido)ethyl)-1H-indole-2-carboxamide], the Ki was 301 to 500 nM.

With `Cc1cc(OCCCc2c(C(=O)N3CCN(c4ccc(C(=O)O)cc4)CC3)[nH]c3c(-c4c(C)nn(C)c4C)c(Cl)ccc23)cc(C)c1Cl` [I-335, 4-(4-(6-chloro-3-(3-(4-chloro-3,5-dimethylphenoxy)propyl)-7-(1,3,5-trimethyl-1H-pyrazol-4-yl)-1H-indole-2-carbonyl)piperazin-1-yl)benzoic acid], the Ki was under 50 nM.

As to `Cc1cc(OCCCc2c3n(c4c(-c5c(C)nn(C)c5C)c(Cl)ccc24)CCCN(c2cc(C(=O)O)cc4c2c(C=O)cn4C)C3=O)cc(C)c1Cl` [I-254, 4-(8-chloro-11-(3-(4-chloro-3,5-dimethylphenoxy)propyl)-1-oxo-7-(1,3,5-trimethyl-1H-pyrazol-4-yl)-4,5-dihydro-1H-[1,4]diazepino[1,2-a]indol-2(3H)-yl)-3-formyl-1-methyl-1H-indole-6-carboxylic acid], the Ki is under 50 nM.

Consider `Cc1cc(OCCCc2c3n(c4c(-c5c(C)nn(C)c5C)c(Cl)ccc24)CCNC3=O)cc(C)c1Cl` [I-117, 7-chloro-10-(3-(4-chloro-3,5-dimethylphenoxy)propyl)-6-(1,3,5-trimethyl-1H-pyrazol-4-yl)-3,4-dihydropyrazino[1,2-a]indol-1(2H)-one], for which the inhibition constant Ki is under 50 nM.

As to `Cc1cc(OCCCc2c3n(c4c(-c5c(C)nn(C)c5C)c(Cl)ccc24)CC(C)CN(Cc2ccc(C(=O)O)o2)C3=O)cc(C)c1Cl` (stereo not shown) [I-132, 5-((8-chloro-1-(3-(4-chloro-3,5-dimethylphenoxy)propyl)-4-methyl-1-oxo-7-(1,3,5-trimethyl-1H-pyrazol-4-yl)-4,5-dihydro-1H-[1,4]diazepino[1,2-a]indol-2(3H)-yl)methyl)furan-2-carboxylic acid], the Ki is under 50 nM.

As for `Cc1cc(OCCCc2c(C(=O)Nc3ccc(C(=O)NS(=O)(=O)c4ccc([N+](=O)[O-])cc4)cc3)[nH]c3c(-c4cccnc4C)cccc23)cc(C)c1Cl` [I-69, 3-(3-(4-chloro-3,5-dimethylphenoxy)propyl)-7-(2-methylpyridin-3-yl)-N-(4-(((4-nitrophenyl)sulfonyl)carbamoyl)phenyl)-1H-indole-2-carboxamide], the Ki fell in the range of 101 to 299 nM.

Consider `Cc1cc(OCCCc2c(C(=O)NCc3ccc(C(=O)O)o3)n(C)c3c(-c4c(C)nn(C)c4C)cccc23)cc(C)c1Cl` [I-66, 5-((3-(3-(4-chloro-3,5-dimethylphenoxy)propyl)-1-methyl-7-(1,3,5-trimethyl-1H-pyrazol-4-yl)-1H-indole-2-carboxamido)methyl)furan-2-carboxylic acid], for which the Ki is under 50 nM.

`Cc1cc(OCCCc2c3n(c4c(-c5c(C)nn(C)c5C)cccc24)CCCN(Cc2cc(C(=O)O)cc(N4CCCC4)c2)C3=O)cc(C)c1Cl` [I-84, 3-((11-(3-(4-chloro-3,5-dimethylphenoxy)propyl)-1-oxo-7-(1,3,5-trimethyl-1H-pyrazol-4-yl)-4,5-dihydro-1H-[1,4]diazepino[1,2-a]indol-2(3H)-yl)methyl)-5-(pyrrolidin-1-yl)benzoic acid]: the Ki is 101 to 299 nM.

For the compound `Cc1cc(OCCCc2c(C(=O)N3CCN(c4ccc(C(=O)O)cc4)CC3)n(Cc3ccncc3)c3c(-c4c(C)nn(C)c4C)c(Cl)ccc23)cc(C)c1Cl` [I-340, 4-(4-(6-chloro-3-(3-(4-chloro-3,5-dimethylphenoxy)propyl)-1-(pyridin-4-ylmethyl)-7-(1,3,5-trimethyl-1H-pyrazol-4-yl)-1H-indole-2-carbonyl)piperazin-1-yl)benzoic acid], the Ki fell in the range of 51 to 100 nM.

On to `Cc1cc(OCCCc2c(C(=O)NCc3cc(C(=O)O)cc(N4CCN(CCC(C)C)CC4)n3)[nH]c3c(-c4c(C)nn(C)c4C)c(Cl)ccc23)cc(C)c1Cl` [I-285, 2-((6-chloro-3-(3-(4-chloro-3,5-dimethylphenoxy)propyl)-7-(1,3,5-trimethyl-1H-pyrazol-4-yl)-1H-indole-2-carboxamido)methyl)-6-(4-isopentylpiperazin-1-yl)isonicotinic acid], for which the Ki is under 50 nM.

Staying with this test, now noted: Table 2; Ki bins given in μM; FITC-Bak or FITC-Bim peptide competition; Ki converted from IC50; read-out: Ki for Inhibition of Mcl-1.
Take `Cc1cc(CNC(=O)c2[nH]c3c(-c4c(C)nn(C)c4C)cccc3c2CCCOc2cc(C)c(Cl)c(C)c2)cc(OC(F)(F)F)c1` [I-265, 3-(3-(4-chloro-3,5-dimethylphenoxy)propyl)-N-(3-methyl-5-(trifluoromethoxy)benzyl)-7-(1,3,5-trimethyl-1H-pyrazol-4-yl)-1H-indole-2-carboxamide]: the inhibitory constant (Ki) was 1000 to 9990 nM.

For the compound `Cc1cc(OCCCc2c(C(=O)NCc3cccc(C(=O)NCc4ccccc4)c3)[nH]c3c(-c4c(C)n[nH]c4C)cccc23)cc(C)c1Cl` [I-64, N-(3-(benzylcarbamoyl)benzyl)-3-(3-(4-chloro-3,5-dimethylphenoxy)propyl)-7-(3,5-dimethyl-1H-pyrazol-4-yl)-1H-indole-2-carboxamide], the Ki fell in the range of 10000 to 50000 nM.

Consider `Cc1cc(OCCCc2c(C(=O)NCc3cc(C(=O)NCc4ccccc4)c(C)o3)[nH]c3c(-c4c(C)nn(C)c4C)cccc23)cc(C)c1Cl` [I-275, N-((4-(benzylcarbamoyl)-5-methylfuran-2-yl)methyl)-3-(3-(4-chloro-3,5-dimethylphenoxy)propyl)-7-(1,3,5-trimethyl-1H-pyrazol-4-yl)-1H-indole-2-carboxamide], for which the inhibitory constant (Ki) fell in the range of 1000 to 9990 nM.

`Cc1cc(OCCCc2c(C(=O)NCc3cccc(OC(F)(F)F)c3)[nH]c3c(-c4c(C)nn(C)c4C)cccc23)cc(C)c1Cl` [I-264, 3-(3-(4-chloro-3,5-dimethylphenoxy)propyl)-N-(3-(trifluoromethoxy)benzyl)-7-(1,3,5-trimethyl-1H-pyrazol-4-yl)-1H-indole-2-carboxamide]: the Ki fell in the range of 1000 to 9990 nM.

As to `Cc1cc(OCCCc2c(C(=O)NCc3ccc(C(=O)O)o3)n(C)c3c(-c4c(C)nn(C)c4C)cccc23)cc(C)c1Cl` [I-66, 5-((3-(3-(4-chloro-3,5-dimethylphenoxy)propyl)-1-methyl-7-(1,3,5-trimethyl-1H-pyrazol-4-yl)-1H-indole-2-carboxamido)methyl)furan-2-carboxylic acid], the Ki was 10000 to 50000 nM.
